Test results as given in patent publication US10786471B2, “Methods and products related to glutaminase inhibitors” (Massachusetts Institute of Technology, priority 2017, dated 2020).
Entries after “also recorded” stand apart in the source; their conditions may differ. Read-outs that look alike come from different tables or passages of the source.

Key:
A549 cells [1] = experiment: Proliferation rate of A549 cells with vehicle or 1 μM CB-839 in different media; assay type: cell-based, human; conditions: cystine at RPMI/DMEM levels
Procedure: Each medium included ^13C5-glutamine added to ˜33% enrichment (n=3). […] For all parts of the figure, the values represent the mean and the error bars represent ±SEM. […] In FIG. 8A, A549 cells were cultured in adult bovine serum with DMEM nutrient levels, adult bovine serum with DMEM amino acid levels, and adult bovine serum with DMEM amino acid levels but without supplementation of the amino acids indicated in each column. For each medium, the proliferation rate for cells grown with vehicle (DMSO) or 1 μM CB-839 is shown (n=3). […] Cell lines growing in log phase in RPMI medium were trypsinized, counted and plated into 6 well dishes in 2 mL of RPMI medium and incubated overnight. […] The next day, a plate of cells was trypsinized and counted to provide a number of cells at the start of the experiment. […] Cells were then counted 4 days after adding the indicated medias. Proliferation rate was determined using the following formula: Proliferation rate in doublings/day=[Log 2(Final Day 4 cell count/Initial Day 0 cell count)]/4 days. Cells were counted using a Cellometer Auto t$ Plus Cell Counter (Nexcelom Bioscience).

A549 cells [2] = experiment: 13C5-glutamine tracing of glutamine anaplerosis in cultured A549 cells; assay type: cell-based, human; conditions: A549 cells cultured 8 h; high cystine (208 μM added to adult bovine serum)
From the text: Each medium included ^13C5-glutamine added to ˜33% enrichment (n=3). […] For all parts of the figure, the values represent the mean and the error bars represent ±SEM.

A549 tumors = experiment: Tumor glutamine anaplerosis in A549 tumor-bearing mice after oral cystine; assay type: in vivo; conditions: oral cystine before 13C5-glutamine bolus
Procedure: In FIG. 5A, nu/nu mice were treated orally with 2.4 g/kg cystine and plasma from these animals was serially collected at the indicated time points. Cystine concentration of the plasma was determined by GC-MS. In FIG. 5B, A549 tumor-bearing mice were treated (n=4) or not (n=3) with oral cystine prior to bolus ^13C5-glutamine injection prior to harvesting the plasma and tumors. […] In FIG. 5C, intratumoral glutamate (m+5) and α-ketoglutarate (m+5) labeling from FIG. 5B were normalized to tumor glutamine (m+5).

AU565 = experiment: Proliferation rate of AU565 cells overexpressing SLC7A11 with 1 μM CB-839; assay type: cell-based; conditions: SLC7A11 overexpression, RPMI vs RPMI (10 μM cystine)
Procedure: (§1) Proliferation rates for MDA-MB-468 and AU565 cell lines overexpressing SLC7A11 or not (from FIG. 4G) in RPMI or RPMI (10 μM cystine) with vehicle (DMSO) or 1 μM CB-839 are shown. The values represent the mean and the error bars represent ±SEM.
(§2) Cell lines growing in log phase in RPMI medium were trypsinized, counted and plated into 6 well dishes in 2 mL of RPMI medium and incubated overnight. Initial seeding density was 20,000 cells/well for A549 cells, or 50,000 cells for MCF7, AU565 and MDA-MB-468 cells. The next day, a plate of cells was trypsinized and counted to provide a number of cells at the start of the experiment. Cells were then washed twice with 2 mL of PBS, and […] of the indicated media premixed with indicated compounds or vehicles was added. Cells were then counted 4 days after adding the indicated medias. Proliferation rate was determined using the following formula:
(§3) Proliferation rate in doublings/day=[Log 2(Final Day 4 cell count/Initial Day 0 cell count)]/4 days. Cells were counted using a Cellometer Auto t$ Plus Cell Counter (Nexcelom Bioscience).

MDA-MB-468 = experiment: Proliferation rate of MDA-MB-468 cells overexpressing SLC7A11 with 1 μM CB-839; assay type: cell-based; conditions: SLC7A11 overexpression, RPMI vs RPMI (10 μM cystine)
Procedure: as §1, §2, §3

breast cancer cell lines = conditions: RPMI, cited from earlier work

| Compound | effect of cystine on CB-839 inhibition of proliferation (A549 cells [1]) | effect on glutamine anaplerosis (fractional labeling from 13C5-glutamine) (A549 cells [2]) | effect on tumor glutamine anaplerosis in vivo (A549 tumors) | sensitivity of proliferation to CB-839 (AU565) | sensitivity of proliferation to CB-839 (MDA-MB-468) | IC50 (breast cancer cell lines; 'resistant' breast cancer cell lines, maximal CB-839 tested 1 μM) [nM] | IC50 (breast cancer cell lines; sensitive breast cancer cell lines) [nM] |
| --- | --- | --- | --- | --- | --- | --- | --- |
| N[C@@H](CSSC[C@H](N)C(=O)O)C(=O)O [cystine] | potentiate the effects of the glutaminase inhibitor CB-839; also recorded: potentiates the glutaminase inhibitor CB-839 | enhance glutamine anaplerosis | increases tumor glutamine anaplerosis in vivo | – | – | – | – |
| O=C(Cc1cccc(OC(F)(F)F)c1)Nc1ccc(CCCCc2nnc(NC(=O)Cc3ccccn3)s2)nn1 [CB-839] | – | – | – | cystine-induced CB-839 sensitivity | cystine-induced CB-839 sensitivity | > 1000 | < 1000 |
